The source of these data is patent US20230338395A1, “PROPHYLAXIS AND TREATMENT OF CORONAVIRUS INFECTION” (priority 2020, published 2023).

For assay [1], the system named is SARS-CoV-2. The assay is described as follows: Pulmonary inflammation after SARS-CoV-2 challenge in MRL-Fas lpr mice. The conditions noted are these: 40 mg/kg/day intraperitoneal from around day 15 after viral clearance, lungs inspected at day 40 post infection. It is filed as in vivo.
Assay [2] has as its system COVID-19. The conditions noted are these: severely ill COVID-19 patients; cited from earlier work.
The test system of assay [3] is tlr7 gene expression. The conditions noted are these: SLE-patients; cited from earlier work.
For assay [4], the system named is SARS-CoV-1. Also on record: species or system mice. As to conditions: mouse, in vivo.
Assay [5] has as its system lethal respiratory virus infections. The conditions noted are these: aged mice, intranasal treatment; cited from earlier work.
Assay [6] concerns classical swine fever. Also noted: species or system pigs. As to conditions: pig, in vivo, 0.1 mg/kg.

For the compound `CCN(CCO)CCCC(C)Nc1ccnc2cc(Cl)ccc12` (stereo not shown) [hydroxychloroquine], the “severity of pulmonary inflammation (score 0-4)” value in assay [1] is given as “improved”.
Consider `C=C1CC[C@H](O)C/C1=C/C=C1\CCC[C@]2(C)[C@@H]([C@H](C)CCCC(C)C)CC[C@@H]12` [vitamin D3], for which, in assay [2], the “protection from thrombosis and embolism” value was “protect severely ill COVID-19 patients from thrombosis and embolism”. For the same compound, the tlr7 gene expression result in assay [3] is recorded as “down-regulating tlr7 gene expression”.
With “Polyinosinic:polycytidylic acid [poly(IC)]”, in assay [4], the “protection compared with the other tlr agonists” value is reported as “most protective” and the survival result was “increase survival”. Further, in assay [5], the “protection from lethal respiratory virus infections” value is “protects aged mice from lethal respiratory virus infections”. Besides, in assay [6], the infection fatality rate result is “lower than the infection fatality rate of the untreated subpopulation”.
